Laboratory results published in patent US5541171A, “Orally administrable pharmaceutical composition” (priority 1981, dated 1996).
Entries after “also recorded” stand apart in the source; their conditions may differ.

Key:
[1] = in vivo
Protocol: Patients completed diary cards throughout 16 weeks and were asked to note any side effects; they were seen after 4, 12 and 16 weeks. On completion of the trial a further sigmoidoscopy was performed to ensure the muscosa appeared normal. Patients were seen promptly if symptoms recurred and a sigmoidoscopy was performed at that time. A relapse was defined as a recurrence of symptoms with increased stool frequency and blood loss with sigmoidoscopic changes of contact or spontaneous mucosal haemorrhage (grade 3) or the presence of pus with bleeding and ulceration (grade 4). Blood was taken for a routine blood count and examination of the film at each clinic attendance and measurements of the serum electrolytes and liver function tests were performed initially and after 16 weeks. The study, which was randomised and double-blind in design, involved using identical placebo tablets for both sulphasalazine and 5-ASA; each patient was given two sets of tablets with either active 5-ASA and placebo sulphasalazine or placebo 5-ASA and active sulphasalazine. The patient's usual dose of sulphasalazine was continued with a minimum dose of 2 grams daily. The tablets of 5-ASA contained 400 mg (ie the amount of 5-ASA contained in 1 gram of sulphasalazine). […] Compliance was checked at each hospital visit by counting the number of tablets returned. […]

[2] = system: colitis, Crohn's disease, idiopathic proctitis and chronic arthritis; conditions: in vivo; cited from earlier work
[3] = system: ulcerative colitis or proctitis; assay: Randomised double-blind 16 week maintenance trial in colitis: relapse; assay type: in vivo, patients
Protocol: Seventy-two patients who were in remission with ulcerative colitis or proctitis and taking at least 4 sulphasalazine tablets each day gave their informed consent to a clinical trial. Remission was defined as the passage of three or fewer stools each day without blood or slime during the previous month. Thirty-six patients were male and 36 female. Sigmoidoscopy with rectal biopsy was performed initially and patients only entered the trial if the mucosa was normal (grade 1) or oedematous (grade 2). Biopsies were coded and reviewed by a pathologist who graded them as 1 (normal) or grades 2, 3 or 4 representing mild, moderate or severe inflammatory change.
At least 3 tablets of 5-ASA were taken daily (1200 mg) with an increased dose of 1 tablet for each gram of sulphasalazine above the minimum entry dose of 2 grams for patients taking a high dose of sulphasalazine. […]

[4] = cited from earlier work
[5] = Serum sulphapyridine levels after ingestion of coated capsules (HPLC)
Protocol: Six convalescent patients, 3 male and 3 female with a mean age of 57 years, from a general medical ward gave informed consent to a clinical trial. […] The thickness of the coat was checked using a micrometer to establish the range of thickness and to measure both the wide and narrow end of the capsule. Each capsule contained barium sulphate (300 mg) potato starch (20 mg) and sulphapyridine (300 mg) as a convenient marker Plain abdominal X-rays were taken at 5, 8 and 12 hours after ingestion and blood samples at 0, 3, 5, 7, 9, 12 and 24 hours after ingestion to assay sulphapyridine levels.
Sulphapyridine was analysed by high pressure liquid chromotography (HPLC) using a modification of the method described by Shaw et al (J. Pharm. Pharmacol. 1980;32;67). The analysis was performed on a LiChrosorb 10 RP 18 bonded silica reversed phase column (Merck). The mobile phase was acetonitrile--0.05M potassium dihydrogen phosphate solution (20:80) containing 0.1 per cent tetrabutyl ammonium hydroxide. Sulphapyridine was detected spectrometrically at 260 nm. Serum samples were treated with an equal volume of ethanol to precipitate plasma proteins and after centrifugation, the supernatant was injected on to the chromatograph. Sulphapyridine concentration was read directly from a calibration curve which was linear over the range 1-25 μg/ml (R=0.99).

SMILES	side effects (headache, nausea or indigestion), comparison between groups [1]	usefulness in treatment [2]	significance of difference in relapses between 5-ASA and sulphasalazine ([3]; chi squared)	clearance / excretion ([4]; in vivo)	serum levels ([4]; in vivo)	absorption after oral administration [4]	drug detected in serum 3 hours after ingestion ([5]; 3 hours, any patient)	time of maximal serum levels ([5]; human, in vivo)	patients with drug detected in serum 5 hours after ingestion ([5]; in vivo) [patients]	Relapses ([3]; 16 weeks, 34 patients on 5-ASA (coated tablets, at least 1200 mg daily), 33 on sulphasalazine (minimum 2 grams daily)) [patients]
Nc1ccc(O)c(C(=O)O)c1 [Example 5-ASA, 5-amino-salicylic acid]	no difference	pharmacologically active agent in the treatment of colonic and rectal ailments	not statistically significant; also recorded: p = NS	excreted rapidly after acetylation	very low	–	–	–	–	–
Nc1ccc(S(=O)(=O)Nc2ccccn2)cc1 [sulphapyridine]	–	–	–	slowly cleared from the serum	–	almost entirely absorbed from the small intestine before reaching the colon	No drug was detected	12 or 24 hours after ingestion	2	–
O=C(O)c1cc(/N=N/c2ccc(S(=O)(=O)Nc3ccccn3)cc2)ccc1O [sulphasalazine, Salicylazosulphapyridine]	no difference	useful in the treatment of colitis, Crohn's disease, idiopathic proctitis and chronic arthritis	–	–	–	only absorbed to a limited extent before reaching the colon	–	–	–	6
